Experimental data reported in ChEMBL document CHEMBL3351341, “Discovery of a potent and selective EGFR inhibitor (AZD9291) of both sensitizing and T790M resistance mutations that spares the wild type form of the receptor” (J Med Chem, 2014).
pIC50: −log10 of the molar value. Converted amounts (≈) assume the structure as drawn.

Key:
[1] = target: T1, Insulin-like growth factor 1 receptor (Homo sapiens, UniProt P08069); experiment: Inhibition of IGF1R (unknown origin) at 1 uM relative to control
[2] = target: Calcium/calmodulin-dependent protein kinase kinase 2 (Homo sapiens) (UniProt Q96RR4); experiment: Inhibition of CAMKKbeta (unknown origin) at 1 uM relative to control
Chain of Calcium/calmodulin-dependent protein kinase kinase 2 (Homo sapiens) (Q96RR4 2-588 limits assumed): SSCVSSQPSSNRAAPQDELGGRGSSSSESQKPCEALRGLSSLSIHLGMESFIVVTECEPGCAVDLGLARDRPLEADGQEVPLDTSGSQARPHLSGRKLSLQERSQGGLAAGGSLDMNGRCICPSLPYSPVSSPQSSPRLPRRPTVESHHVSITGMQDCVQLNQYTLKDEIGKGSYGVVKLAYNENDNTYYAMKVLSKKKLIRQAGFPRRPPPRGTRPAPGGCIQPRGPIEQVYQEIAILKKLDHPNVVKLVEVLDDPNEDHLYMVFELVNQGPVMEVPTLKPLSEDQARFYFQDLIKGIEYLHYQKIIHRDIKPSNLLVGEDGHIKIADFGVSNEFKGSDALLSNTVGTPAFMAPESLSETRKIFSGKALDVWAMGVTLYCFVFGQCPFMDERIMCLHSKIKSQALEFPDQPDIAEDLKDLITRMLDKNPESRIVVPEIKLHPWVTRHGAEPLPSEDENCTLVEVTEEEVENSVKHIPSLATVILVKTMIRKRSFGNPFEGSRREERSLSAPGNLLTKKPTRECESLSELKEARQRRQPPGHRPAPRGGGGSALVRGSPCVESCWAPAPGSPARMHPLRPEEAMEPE

[3] = target: Serine/threonine-protein kinase Chk2 (Homo sapiens) (UniProt O96017); experiment: Inhibition of CHK2 (unknown origin) at 1 uM relative to control
Chain of Serine/threonine-protein kinase Chk2 (Homo sapiens) (O96017 whole entry): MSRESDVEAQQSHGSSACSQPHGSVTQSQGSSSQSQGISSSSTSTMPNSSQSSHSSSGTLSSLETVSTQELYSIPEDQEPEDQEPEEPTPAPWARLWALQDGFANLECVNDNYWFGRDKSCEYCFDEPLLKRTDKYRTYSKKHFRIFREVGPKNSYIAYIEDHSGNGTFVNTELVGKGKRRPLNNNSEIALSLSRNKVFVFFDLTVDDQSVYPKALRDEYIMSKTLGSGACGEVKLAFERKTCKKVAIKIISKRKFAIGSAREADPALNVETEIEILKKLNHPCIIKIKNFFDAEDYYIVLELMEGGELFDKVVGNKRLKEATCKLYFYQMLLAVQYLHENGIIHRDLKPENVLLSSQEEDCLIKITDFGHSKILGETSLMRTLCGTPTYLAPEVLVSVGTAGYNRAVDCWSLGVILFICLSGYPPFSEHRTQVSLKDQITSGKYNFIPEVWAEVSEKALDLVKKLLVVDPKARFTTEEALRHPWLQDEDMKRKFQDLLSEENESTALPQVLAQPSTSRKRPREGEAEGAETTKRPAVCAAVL

[4] = target: T2, Insulin receptor (Homo sapiens, UniProt P06213); experiment: Inhibition of INSR (unknown origin) at 1 uM relative to control
T2 sequence (P06213 28-758 limits assumed): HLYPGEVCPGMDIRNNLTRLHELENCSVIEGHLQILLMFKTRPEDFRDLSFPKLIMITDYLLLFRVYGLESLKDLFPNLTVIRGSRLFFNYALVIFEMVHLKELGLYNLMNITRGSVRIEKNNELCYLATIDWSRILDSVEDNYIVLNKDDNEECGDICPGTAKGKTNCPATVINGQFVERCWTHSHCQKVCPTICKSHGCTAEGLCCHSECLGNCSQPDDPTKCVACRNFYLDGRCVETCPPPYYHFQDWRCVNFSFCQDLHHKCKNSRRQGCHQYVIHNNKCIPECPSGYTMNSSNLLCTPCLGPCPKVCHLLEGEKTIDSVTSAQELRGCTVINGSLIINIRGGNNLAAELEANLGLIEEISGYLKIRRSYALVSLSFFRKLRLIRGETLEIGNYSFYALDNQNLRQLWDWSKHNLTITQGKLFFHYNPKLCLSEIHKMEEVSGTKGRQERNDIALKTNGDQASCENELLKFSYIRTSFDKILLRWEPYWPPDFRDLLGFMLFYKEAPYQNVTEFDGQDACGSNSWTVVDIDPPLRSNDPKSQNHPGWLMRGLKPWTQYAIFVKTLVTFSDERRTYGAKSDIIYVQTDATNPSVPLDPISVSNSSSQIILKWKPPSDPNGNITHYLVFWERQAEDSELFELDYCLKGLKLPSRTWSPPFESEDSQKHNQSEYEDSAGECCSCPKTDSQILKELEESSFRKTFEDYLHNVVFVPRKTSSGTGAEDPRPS
T2 sequence (P06213 763-1382 limits assumed): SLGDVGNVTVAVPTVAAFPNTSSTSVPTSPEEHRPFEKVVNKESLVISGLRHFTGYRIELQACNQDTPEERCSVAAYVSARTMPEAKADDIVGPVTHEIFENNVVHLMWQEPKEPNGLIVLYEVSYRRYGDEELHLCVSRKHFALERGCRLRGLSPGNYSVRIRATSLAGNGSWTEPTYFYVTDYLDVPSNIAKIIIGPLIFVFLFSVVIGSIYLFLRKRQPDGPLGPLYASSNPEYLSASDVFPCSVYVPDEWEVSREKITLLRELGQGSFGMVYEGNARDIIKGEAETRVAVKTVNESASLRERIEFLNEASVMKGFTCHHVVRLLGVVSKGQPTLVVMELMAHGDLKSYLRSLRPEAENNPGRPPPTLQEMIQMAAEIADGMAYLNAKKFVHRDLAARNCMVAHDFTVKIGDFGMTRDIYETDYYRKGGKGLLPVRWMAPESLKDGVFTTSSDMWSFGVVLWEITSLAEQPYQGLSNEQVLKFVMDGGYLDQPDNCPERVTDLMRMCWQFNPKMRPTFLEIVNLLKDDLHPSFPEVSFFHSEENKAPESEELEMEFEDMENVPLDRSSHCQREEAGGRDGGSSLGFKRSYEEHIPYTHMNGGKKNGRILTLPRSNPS

[5] = target: T1, Insulin-like growth factor 1 receptor; experiment: Inhibition of IGF1R (unknown origin)
[6] = Thermodynamic solubility of the compound at pH 7.4; format: physicochemical; details: buffer, read-out: Therm_solubility
[7] = Fraction unbound in Han Wistar rat plasma; format: ADME, cell-free
[8] = Unbound fraction in human plasma; format: ADME, cell-free
[9] = Cytotoxicity against human Calu3 cells assessed as growth inhibition after 72 hrs by SYTOX green nucleic acid staining-based fluorescence assay; format: functional, Calu-3; details: Homo sapiens, Calu-3, 72 h
[10] = Cytotoxicity against human PC9 cells harboring EGFR exon 19 deletion activating mutant assessed as growth inhibition after 72 hrs by SYTOX green nucleic acid staining-based fluorescence assay; format: functional, PC-9; details: Homo sapiens, PC-9, 72 h
[11] = Lipophilicity, log D of the compound at pH 7.4; format: physicochemical; details: buffer
[12] = tested on: NCI-H1975; experiment: Cytotoxicity against human NCI-H1975 cells harboring EGFR L858R/[…] double mutant assessed as growth inhibition after 72 hrs by SYTOX green nucleic acid staining-based fluorescence assay; format: functional; details: Homo sapiens, NCI-H1975, 72 h
[13] = target: Epidermal growth factor receptor (Homo sapiens, UniProt P00533, L858R/T790M); experiment: Inhibition of EGFR L858R/T790M double mutant phosphorylation in human NCI-H1975 cells after 2 hrs by fluorescence assay; format: cell-based
[14] = target: Epidermal growth factor receptor (Homo sapiens, UniProt P00533); experiment: Inhibition of wild type EGFR phosphorylation in human LoVo cells after 2 hrs by fluorescence assay; format: cell-based
[15] = target: Epidermal growth factor receptor (Homo sapiens, UniProt P00533, EX19DEL); experiment: Inhibition of EGFR exon 19 deletion activating mutant phosphorylation in human PC9 cells after 2 hrs by fluorescence assay; format: cell-based, PC-9
[16] = Intrinsic clearance in mouse hepatocytes measured per 10^6 cells; format: ADME, cell-based, Hepatocyte; details: read-out: CLH
[17] = tested on: NCI-H1975; experiment: Antitumor activity against human NCI-H1975 cells harboring EGFR L858R/[…] double mutant xenografted in SCID mouse assessed as tumor growth inhibition at 5 mg/kg/day, po qd for 7 days relative to control; format: functional; details: Mus musculus, NCI-H1975, 168 h, read-out: TGI
[18] = tested on: A-431; experiment: Antitumor activity against human A431 cells xenografted in SCID mouse assessed as tumor growth inhibition at 10 mg/kg/day, po qd for 7 days relative to control; format: functional; details: Mus musculus, A-431, 168 h, read-out: TGI
[19] = tested on: A-431; experiment: Antitumor activity against human A431 cells xenografted in SCID mouse assessed as tumor growth inhibition at […], po qd for 7 days relative to control; format: functional; details: Mus musculus, A-431, 168 h, read-out: TGI
[20] = tested on: A-431; experiment: Antitumor activity against human A431 cells xenografted in SCID mouse assessed as tumor growth inhibition at 5 mg/kg/day, po qd for 7 days relative to control; format: functional; details: Mus musculus, A-431, 168 h, read-out: TGI
[21] = tested on: NCI-H1975; experiment: Antitumor activity against human NCI-H1975 cells harboring EGFR L858R/[…] double mutant xenografted in SCID mouse assessed as tumor growth inhibition at 10 mg/kg/day, po qd for 7 days relative to control; format: functional; details: Mus musculus, NCI-H1975, 168 h, read-out: TGI
[22] = Unbound fraction in nude mouse plasma; format: ADME, cell-free
[23] = tested on: NCI-H1975; experiment: Antitumor activity against human NCI-H1975 cells harboring EGFR L858R/[…] double mutant xenografted in SCID mouse assessed as tumor growth inhibition at […], po qd for 7 days relative to control; format: functional; details: Mus musculus, NCI-H1975, 168 h, read-out: TGI
[24] = Intrinsic clearance in human hepatocytes measured per 10^6 cells; format: ADME, cell-based, Hepatocyte; details: read-out: CLH
[25] = target: Voltage-gated inwardly rectifying potassium channel KCNH2 (Homo sapiens, UniProt Q12809); experiment: Inhibition of human ERG
Chain of Voltage-gated inwardly rectifying potassium channel KCNH2 (Q12809 whole entry): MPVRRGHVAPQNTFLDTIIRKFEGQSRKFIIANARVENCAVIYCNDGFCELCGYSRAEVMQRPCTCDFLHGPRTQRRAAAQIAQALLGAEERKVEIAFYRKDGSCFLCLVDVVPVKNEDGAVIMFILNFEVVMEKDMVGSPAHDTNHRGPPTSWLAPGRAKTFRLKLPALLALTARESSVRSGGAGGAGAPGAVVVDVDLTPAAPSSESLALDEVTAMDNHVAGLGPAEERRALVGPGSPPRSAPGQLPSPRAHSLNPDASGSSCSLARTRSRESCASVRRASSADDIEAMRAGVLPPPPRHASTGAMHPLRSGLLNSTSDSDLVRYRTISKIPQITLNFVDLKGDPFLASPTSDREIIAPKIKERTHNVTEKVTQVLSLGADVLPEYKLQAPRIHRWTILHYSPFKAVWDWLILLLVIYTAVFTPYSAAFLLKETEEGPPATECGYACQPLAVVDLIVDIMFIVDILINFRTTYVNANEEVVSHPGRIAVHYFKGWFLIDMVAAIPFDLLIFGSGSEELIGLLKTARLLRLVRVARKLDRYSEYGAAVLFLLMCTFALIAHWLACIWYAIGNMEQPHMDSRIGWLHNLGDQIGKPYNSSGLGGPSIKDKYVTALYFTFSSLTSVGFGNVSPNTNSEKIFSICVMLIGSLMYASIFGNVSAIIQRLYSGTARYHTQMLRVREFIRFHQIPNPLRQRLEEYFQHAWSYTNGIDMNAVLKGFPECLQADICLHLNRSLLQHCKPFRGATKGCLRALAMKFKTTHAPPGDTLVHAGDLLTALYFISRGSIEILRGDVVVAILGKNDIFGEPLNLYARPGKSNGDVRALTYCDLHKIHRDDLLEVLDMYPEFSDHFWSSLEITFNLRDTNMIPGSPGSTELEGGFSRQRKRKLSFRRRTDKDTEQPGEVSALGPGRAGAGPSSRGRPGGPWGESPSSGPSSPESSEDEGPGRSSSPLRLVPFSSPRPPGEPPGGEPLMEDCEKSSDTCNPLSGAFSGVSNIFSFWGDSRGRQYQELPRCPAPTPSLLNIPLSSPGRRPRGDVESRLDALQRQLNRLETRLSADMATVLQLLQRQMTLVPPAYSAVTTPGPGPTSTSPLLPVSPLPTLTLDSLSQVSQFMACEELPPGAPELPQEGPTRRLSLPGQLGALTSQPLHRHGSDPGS

[26] = Oral bioavailability in Han Wistar rat at 5 mg/kg; format: ADME, organism-based; details: in vivo
[27] = Cmax in mouse at 10 mg/kg, po; format: ADME, organism-based; parameters: dose 10 mg/kg, route oral; details: in vivo
[28] = tested on: Rattus norvegicus; experiment: Clearance in iv dosed Han Wistar rat; format: ADME, organism-based; details: in vivo
[29] = tested on: Mus musculus; experiment: Inhibition of EGFR L858R/[…] double mutant phosphorylation in human NCI-H1975 cells xenografted in SCID mouse at 10 mg/kg, po measured 16 hrs post dose; format: functional; details: NCI-H1975, 16 h
[30] = tested on: Mus musculus; experiment: Inhibition of EGFR L858R/[…] double mutant phosphorylation in human NCI-H1975 cells xenografted in SCID mouse at 10 mg/kg, po measured 6 hrs post dose; format: functional; details: NCI-H1975, 6 h
[31] = tested on: Mus musculus; experiment: Inhibition of EGFR L858R/[…] double mutant phosphorylation in human NCI-H1975 cells xenografted in SCID mouse at 10 mg/kg, po measured 1 hr post dose; format: functional; details: NCI-H1975, 1 h
[32] = tested on: Mus musculus; experiment: Inhibition of EGFR exon 19 deletion activating mutant phosphorylation in human PC9 cells xenografted in SCID mouse at 10 mg/kg, po measured 16 hrs post dose; format: functional; details: PC-9, 16 h
[33] = target: T2, Insulin receptor; experiment: Inhibition of INSR (unknown origin)
[34] = Antitumor activity against human PC9 cells harboring EGFR exon 19 deletion activating mutant xenografted in SCID mouse assessed as tumor growth inhibition at 10 mg/kg/day, po qd for 7 days relative to control; format: functional, PC-9; details: Homo sapiens, PC-9, 168 h, read-out: TGI
[35] = tested on: Mus musculus; experiment: Inhibition of EGFR L858R/[…] double mutant phosphorylation in human NCI-H1975 cells xenografted in SCID mouse at 10 mg/kg, po measured 30 hrs post dose; format: functional; details: NCI-H1975, 30 h
[36] = tested on: Mus musculus; experiment: Inhibition of EGFR L858R/[…] double mutant phosphorylation in human NCI-H1975 cells xenografted in SCID mouse at 10 mg/kg, po measured 24 hrs post dose; format: functional; details: NCI-H1975, 24 h
[37] = tested on: Mus musculus; experiment: Inhibition of EGFR exon 19 deletion activating mutant phosphorylation in human PC9 cells xenografted in SCID mouse at 10 mg/kg, po measured 1 hr post dose; format: functional; details: PC-9, 1 h
[38] = tested on: Mus musculus; experiment: Inhibition of EGFR exon 19 deletion activating mutant phosphorylation in human PC9 cells xenografted in SCID mouse at 10 mg/kg, po measured 24 hrs post dose; format: functional; details: PC-9, 24 h
[39] = tested on: Mus musculus; experiment: Inhibition of EGFR exon 19 deletion activating mutant phosphorylation in human PC9 cells xenografted in SCID mouse at 10 mg/kg, po measured 6 hrs post dose; format: functional; details: PC-9, 6 h
[40] = tested on: Mus musculus; experiment: Inhibition of EGFR exon 19 deletion activating mutant phosphorylation in human PC9 cells xenografted in SCID mouse at 10 mg/kg, po measured 30 hrs post dose; format: functional; details: PC-9, 30 h

T1 sequence (P08069 31-736 limits assumed): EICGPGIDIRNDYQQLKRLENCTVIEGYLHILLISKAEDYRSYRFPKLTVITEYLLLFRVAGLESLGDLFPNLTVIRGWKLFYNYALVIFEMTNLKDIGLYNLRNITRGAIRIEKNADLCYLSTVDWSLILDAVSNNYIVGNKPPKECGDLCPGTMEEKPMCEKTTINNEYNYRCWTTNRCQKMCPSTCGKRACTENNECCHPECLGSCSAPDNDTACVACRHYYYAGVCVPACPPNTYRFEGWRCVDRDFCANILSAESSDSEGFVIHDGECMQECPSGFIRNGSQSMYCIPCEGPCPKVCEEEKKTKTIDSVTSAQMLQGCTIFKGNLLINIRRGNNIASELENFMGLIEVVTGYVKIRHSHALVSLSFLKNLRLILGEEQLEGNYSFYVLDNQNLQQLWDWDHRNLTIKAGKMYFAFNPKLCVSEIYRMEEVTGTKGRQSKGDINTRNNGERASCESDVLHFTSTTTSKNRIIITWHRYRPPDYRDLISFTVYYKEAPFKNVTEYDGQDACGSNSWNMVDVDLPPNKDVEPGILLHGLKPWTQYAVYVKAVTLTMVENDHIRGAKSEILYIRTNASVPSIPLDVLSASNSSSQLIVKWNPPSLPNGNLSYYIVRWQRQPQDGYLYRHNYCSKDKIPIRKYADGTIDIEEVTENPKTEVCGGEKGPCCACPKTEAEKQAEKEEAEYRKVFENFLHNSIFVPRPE
T1 sequence (P08069 741-1367 limits assumed): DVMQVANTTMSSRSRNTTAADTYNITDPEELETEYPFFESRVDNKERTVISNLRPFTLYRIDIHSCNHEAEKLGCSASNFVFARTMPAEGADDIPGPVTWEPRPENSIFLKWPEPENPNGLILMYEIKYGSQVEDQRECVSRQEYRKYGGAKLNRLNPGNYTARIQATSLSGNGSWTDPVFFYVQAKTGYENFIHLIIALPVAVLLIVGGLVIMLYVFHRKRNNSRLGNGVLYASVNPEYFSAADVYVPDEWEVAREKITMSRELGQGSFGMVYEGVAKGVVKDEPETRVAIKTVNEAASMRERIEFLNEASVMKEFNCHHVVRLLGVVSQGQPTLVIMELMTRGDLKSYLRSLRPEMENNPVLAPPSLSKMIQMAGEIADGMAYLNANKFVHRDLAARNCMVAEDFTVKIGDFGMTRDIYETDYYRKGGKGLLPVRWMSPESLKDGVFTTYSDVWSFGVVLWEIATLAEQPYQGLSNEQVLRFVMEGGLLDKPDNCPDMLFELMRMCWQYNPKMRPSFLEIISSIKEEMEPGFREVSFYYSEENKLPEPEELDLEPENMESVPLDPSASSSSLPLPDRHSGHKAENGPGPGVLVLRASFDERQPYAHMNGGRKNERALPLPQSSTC

## COc1ccc(NC(=O)/C=C/CN(C)C)cc1Nc1ncc(Cl)c(-c2cnn3ccccc23)n1
[1]
  inhibition: 98%
[2]
  inhibition: 94%
[3]
  inhibition: 90%
[4]
  inhibition: 97%
[5]
  pIC50: 8.40

## C=CC(=O)Nc1cc(Nc2ncc(Cl)c(-c3c[nH]c4ccccc34)n2)c(OC)cc1N(C)CCN(C)C
[6]
  solubility thermodynamic: 75 µM (≈ 39 µg/mL)
[7]
  fraction unbound: 0.075
[8]
  fraction unbound: 0.036
[9]
  GI50: 144 nM
[10]
  GI50: 2 nM
[11]
  logD: 3.3
[12]
  GI50: 2 nM
[5]
  pIC50: 8.15

## C=CC(=O)Nc1cc(Nc2ncc(Cl)c(-c3cnn4ccccc34)n2)c(OC)cc1N1CCN(C)CC1
[1]
  inhibition: 97%
[2]
  inhibition: 92%
[5]
  pIC50: 8.70

## C=CC(=O)Nc1cc(Nc2ncc(Cl)c(-c3cnn4ccccc34)n2)c(OC)cc1N1CCN(C(=O)[C@@H](C)N)CC1
[11]
  logD: 2.1

## C=CC(=O)Nc1cc(Nc2nccc(-c3c[nH]c4ccccc34)n2)c(OC)cc1N1CCN(C)CC1
[6]
  solubility thermodynamic: 828 µM (≈ 400 µg/mL)
[13]
  pIC50: 7.20
[14]
  pIC50: 5.92
[15]
  pIC50: 7.82
[16]
  hepatocyte CLint: 53 µL/min/1e6 cells
[5]
  pIC50: 6.09

## C=CC(=O)Nc1cc(Nc2nccc(-c3c[nH]c4ccccc34)n2)c(OC)cc1N(C)CCN(C)C
[17]
  inhibition in vivo at 5 mg/kg/day: 125%
[6]
  solubility thermodynamic: 79 µM (≈ 38.4 µg/mL)
[18]
  inhibition in vivo at 10 mg/kg/day: 133%
[19]
  inhibition in vivo at […]: 83%
[20]
  inhibition in vivo at 5 mg/kg/day: 85%
[21]
  inhibition in vivo at 10 mg/kg/day: 123%
[22]
  fraction unbound: 0.134
[7]
  fraction unbound: 0.16
[8]
  fraction unbound: 0.075
[9]
  GI50: 58 nM
[23]
  inhibition in vivo at […]: 78%
[10]
  GI50: 21 nM
[11]
  logD: 2.9
[12]
  GI50: 16 nM
[5]
  pIC50: 6.58

## C=CC(=O)Nc1cc(Nc2ncc(Cl)c(-c3cn(C)c4ccccc34)n2)c(OC)cc1N(C)CCN(C)C
[6]
  solubility thermodynamic: 759 µM (≈ 405 µg/mL)
[24]
  hepatocyte CLint: 10 µL/min/1e6 cells
[25]
  pIC50: 5.13
[26]
  bioavailability: 7%
[8]
  fraction unbound: 0.023
[9]
  GI50: 192 nM
[27]
  Cmax: 310 nM
[10]
  GI50: 3 nM
[11]
  logD: 3.3
[12]
  GI50: 4 nM
[5]
  pIC50: 7.40
[28]
  clearance: 27 mL/min/kg

## C=CC(=O)Nc1cc(Nc2ncc(Cl)c(-c3cnn4ccccc34)n2)c(OC)cc1N(C)CCN(C)C
[29]
  inhibition in vivo at 10 mg/kg: 94%
[1]
  inhibition: 97%
[18]
  inhibition in vivo at 10 mg/kg/day: 35%
[30]
  inhibition in vivo at 10 mg/kg: 100%
[31]
  inhibition in vivo at 10 mg/kg: 89%
[32]
  inhibition in vivo at 10 mg/kg: 60%
[21]
  inhibition in vivo at 10 mg/kg/day: 130%
[33]
  pIC50: 8.05
[34]
  inhibition in vivo at 10 mg/kg/day: 243%
[35]
  inhibition in vivo at 10 mg/kg: 80%
[4]
  inhibition: 99%
[36]
  inhibition in vivo at 10 mg/kg: 93%
[37]
  inhibition in vivo at 10 mg/kg: 30%
[38]
  inhibition in vivo at 10 mg/kg: 38%
[39]
  inhibition in vivo at 10 mg/kg: 83%
[40]
  inhibition in vivo at 10 mg/kg: 10%
[5]
  pIC50: 8.22

## C=CC(=O)Nc1cc(Nc2ncc(Cl)c(-c3cnn4ccccc34)n2)c(OC)cc1N1CCN(C(=O)N2CCNCC2)CC1
[11]
  logD: 2
